The text below walks through data of patent US11999758B2, “Inhibitors of the YAP/TAZ-TEAD interaction and their use in the treatment of cancer” (INVENTIVA, priority 2018, dated 2024).

Structures are written as SMILES. pIC50: −log10 of the molar value.

Data set [1] deals with T1, YAP-TEAD interaction (Homo sapiens, UniProt P28347).
T1 construct: expressed in transfected cells; host or cells: HEK293 GripTite 293 MSR (Invitrogen R795-07)
The data set is described as follows: Cell-based TEAD-GAL4 transactivation assay (luciferase reporter). The conditions noted are these: HEK293 cells transfected with TEAD1-Gal4, YAP mutant (S127A, S397A) and luciferase reporter, compounds 0.1 μM to 30 μM; for Emax: HEK293, 24 h, read-out: TEAD-GAL4 Transactivation activity Max Act; for pIC50: 24 h. Put shortly:
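HEK293 cells transiently transfected with Gal4-DBD–full-length human TEAD1, full-length YAP S127A/S397A (YAP/TEAD ratio 10) and a 5×GAL4-RE TK-luciferase reporter. Six hours later, compounds added semi-log from 0.1 to 30 μM (DMSO 0.5% control) for 24 h. Luciferase read; IC50 from 3-parameter fit.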

T1 sequence (P28347 whole entry): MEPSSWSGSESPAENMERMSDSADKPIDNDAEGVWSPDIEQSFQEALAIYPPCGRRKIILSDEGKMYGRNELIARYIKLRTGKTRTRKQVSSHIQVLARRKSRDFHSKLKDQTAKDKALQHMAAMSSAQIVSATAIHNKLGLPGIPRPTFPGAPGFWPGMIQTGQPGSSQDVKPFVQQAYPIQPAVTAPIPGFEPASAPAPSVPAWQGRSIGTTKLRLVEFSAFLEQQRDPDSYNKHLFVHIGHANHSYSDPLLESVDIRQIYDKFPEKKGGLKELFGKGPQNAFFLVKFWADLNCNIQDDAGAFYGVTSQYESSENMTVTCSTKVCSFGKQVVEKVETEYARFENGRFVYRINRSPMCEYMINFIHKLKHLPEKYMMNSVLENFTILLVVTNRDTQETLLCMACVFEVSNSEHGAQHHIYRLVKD

In turn, `COc1cc(/C=N/N(C)c2ncnc3c(C)csc23)ccc1B(O)O` [Ex71, [2-methoxy-4-[(E)-[methyl-(7-methylthieno[3,2-d]pyrimidin-4-yl) hydrazono]methyl]phenyl]boronic acid] registered a melting point of 237 to 267 °C. Also, in data set [1], the Emax stood at 68% and the negative logarithm of the IC50 (pIC50) is 5.94.

Regarding `CN(/N=C/c1ccc2c(c1)COB2O)c1ncnc2c1cnn2C` [Ex76, N-[(E)-(1-hydroxy-3H-2,1-benzoxaborol-5-yl)methyleneamino]-N,1-dimethyl-pyrazolo[3,4-d]pyrimidin-4-amine], the melting point was in the range of 250 to 260 °C. In data set [1], the Emax was found to be 86% and the negative logarithm of the IC50 (pIC50) is 6.02.

In turn, `Cc1csc2c(N(C)/N=C/c3ccc4c(c3)COB4O)ncnc12` [Ex77, N-[(E)-(1-hydroxy-3H-2,1-benzoxaborol-5-yl)methyleneamino]-N,7-dimethyl-thieno[3,2-d]pyrimidin-4-amine] had a melting point of 231 °C. In data set [1], the Emax was 82% and the pIC50 is 6.49.

In turn, `CCN(/N=C/c1ccc2c(c1)COB2O)c1ncnc2nc(N(C)C)sc12` [Ex79, N7-ethyl-N7-[(E)-(1-hydroxy-3H-2,1-benzoxaborol-5-yl)methyleneamino]-N2,N2-dimethyl-thiazolo[4,5-d]pyrimidine-2,7-diamine] returned a melting point of 247 to 253 °C. Besides, in data set [1], the Emax was determined as 90% and the negative-log IC50 (pIC50) was 6.00.

Regarding `CCN(/N=C/c1ccc2c(c1)COB2O)c1ncnc2c(C)n[nH]c12` [Ex80, N-ethyl-N-[(E)-(1-hydroxy-3H-2,1-benzoxaborol-5-yl)methyleneamino]-3-methyl-1H-pyrazolo[4,3-d]pyrimidin-7-amine], the melting point lay in the range of 265 to 276 °C. Also, in data set [1], the Emax was determined as 69% and the pIC50 is 5.71.

`CCN(/N=C/c1ccc2c(c1)COB2O)c1ncnc2nc(N3CCOCC3)sc12` [Ex82, N-ethyl-N-[(E)-(1-hydroxy-3H-2,1-benzoxaborol-5-yl)methyleneamino]-2-morpholino-thiazolo[4,5-d]pyrimidin-7-amine] came in with a melting point of 183 to 189 °C. For the same compound, in data set [1], the Emax is 89% and the negative logarithm of the IC50 (pIC50) is 5.63.

`CCN(/N=C/c1ccc2c(c1)COB2O)c1ncnc2nc(SC)sc12.Cl` [Ex83, N-ethyl-N-[(E)-(1-hydroxy-3H-2,1-benzoxaborol-5-yl)methyleneamino]-2-methylsulfanyl-thiazolo[4,5-d]pyrimidin-7-amine hydrochloride] registered a melting point of 248 to 264 °C. For the same compound, in data set [1], the Emax was found to be 94% and the pIC50 was 6.64.

The compound `CSc1nc2ncnc(N(CC(C)C)/N=C/c3ccc4c(c3)COB4O)c2s1` [Ex92, N-[(E)-(1-hydroxy-3H-2,1-benzoxaborol-5-yl)methyleneamino]-N-isobutyl-2-methylsulfanyl-thiazolo[4,5-d]pyrimidin-7-amine] had a melting point of 214 to 246 °C. In addition, in data set [1], the Emax was 91% and the negative-log IC50 (pIC50) is 6.77.

With `COCCN(/N=C/c1ccc2c(c1)COB2O)c1ncnc2c(C)csc12` [Ex94, N-[(E)-(1-hydroxy-3H-2,1-benzoxaborol-5-yl)methyleneamino]-N-(2-methoxyethyl)-7-methyl-thieno[3,2-d]pyrimidin-4-amine], the melting point fell in the range of 240 to 253 °C. For the same compound, in data set [1], the Emax turned out to be 80% and the pIC50 was 6.34.

With `COCCN(/N=C/c1ccc2c(c1)COB2O)c1ncnc2nc(SC)sc12.Cl` [Ex95, N-[(E)-(1-hydroxy-3H-2,1-benzoxaborol-5-yl)methyleneamino]-N-(2-methoxyethyl)-2-methylsulfanyl-thiazolo[4,5-d]pyrimidin-7-amine, hydrochloride], the melting point lay within 252 to 264 °C. Besides, in data set [1], the Emax is 85% and the pIC50 was 6.89.

As to `CN(/N=C/c1ccc2c(c1)COB2O)c1ncnc2c1[nH]c(=O)n2C` [Ex98, 6-[[(E)-(1-hydroxy-3H-2,1-benzoxaborol-5-yl)methyleneamino]-methyl-amino]-9-methyl-7H-purin-8-one], the melting point was 180 to 200 °C. Further, in data set [1], the Emax worked out at 86% and the pIC50 is 5.88.

On to `CN(/N=C/c1ccc2c(c1)COB2O)c1ncnc2c1CC(=O)N2C` [Ex99, 4-[[(E)-(1-hydroxy-3H-2,1-benzoxaborol-5-yl)methyleneamino]-methyl-amino]-7-methyl-5H-pyrrolo[2,3-d]pyrimidin-6-one], for which the melting point is 288 to 307 °C. In data set [1], the Emax turned out to be 91% and the pIC50 was 5.67.

`CN(/N=C/c1ccc2c(c1)COB2O)c1ncnc2c1[nH]c(=O)n2C12CC(C1)C2` [Ex110, 9-(3-bicyclo[1.1.1]pentanyl)-6-[[(E)-(1-hydroxy-3H-2,1-benzoxaborol-5-yl)methyleneamino]-methyl-amino]-7H-purin-8-one]: the melting point is 259 to 270 °C. For the same compound, in data set [1], the Emax was found to be 81% and the pIC50 is 5.62.

As to `COCCN(/N=C/c1ccc2c(c1)COB2O)C1=NS(=O)(=O)c2ccccc21` [Ex 24, N-[(E)-(1-hydroxy-3H-2,1-benzoxaborol-5-yl)methyleneamino]-N-(2-methoxyethyl)-1,1-dioxo-1,2-benzothiazol-3-amine], the melting point stood at 227 °C. In data set [1], the Emax stood at 76% and the negative logarithm of the IC50 (pIC50) was 5.28.

On to `CC(C)CN(/N=C/c1ccc2c(c1)C(C)OB2O)C1=NS(=O)(=O)c2ccccc21` (stereo not shown) [Ex 49, N-[(E)-(1-hydroxy-3-methyl-3H-2,1-benzoxaborol-5-yl)methyleneamino]-N-isobutyl-1,1-dioxo-1,2-benzothiazol-3-amine], for which, in data set [1], the Emax stood at 88% and the pIC50 is 5.33.

Take `CC1OB(O)c2ccc(/C=N/N(C)C3=NS(=O)(=O)c4ccccc43)cc21` (stereo not shown) [Ex 50, N-[(E)-(1-hydroxy-3-methyl-3H-2,1-benzoxaborol-5-yl)methyleneamino]-N-methyl-1,1-dioxo-1,2-benzothiazol-3-amine]: in data set [1], the Emax amounted to 81% and the negative-log IC50 (pIC50) is 5.29.

Take `CN(/N=C/c1ccc2c(c1)COB2O)C1=NS(=O)(=O)C2=C1CCCC2` [Ex 51, N-[(E)-(1-hydroxy-3H-2,1-benzoxaborol-5-yl)methyleneamino]-N-methyl-1,1-dioxo-4,5,6,7-tetrahydro-1,2-benzothiazol-3-amine]: in data set [1], the Emax came to 75% and the pIC50 is 5.07.

As for `COc1cc(C2=NN(C3=NS(=O)(=O)c4ccccc43)C(C)CC2)ccc1B(O)O` (stereo not shown) [Ex 52, [4-[2-(1,1-dioxo-1,2-benzothiazol-3-yl)-3-methyl-4,5-dihydro-3H-pyridazin-6-yl]-2-methoxy-phenyl]boronic acid], in data set [1], the Emax is 70% and the pIC50 is 5.78.

Consider `CC1CCC(c2ccc3c(c2)COB3O)=NN1C1=NS(=O)(=O)c2ccccc21` (stereo not shown) [Ex 53, 3-[6-(1-hydroxy-3H-2,1-benzoxaborol-5-yl)-3-methyl-4,5-dihydro-3H-pyridazin-2-yl]-1,2-benzothiazole 1,1-dioxide], for which, in data set [1], the Emax stood at 87% and the pIC50 is 5.52.

As to `COc1cc(OC)c2c(c1)C(N1N=C(c3ccc(B(O)O)c(OC)c3)CCC1C)=NS2(=O)=O` (stereo not shown) [Ex 54, [4-[2-(5,7-dimethoxy-1,1-dioxo-1,2-benzothiazol-3-yl)-3-methyl-4,5-dihydro-3H-pyridazin-6-yl]-2-methoxy-phenyl]boronic acid], in data set [1], the Emax is 76% and the pIC50 is 5.63.

As to `COc1cc(C2=NN(c3ncnc4c(OC)cccc34)C(C)CC2)ccc1B(O)O` (stereo not shown) [Ex 55, [2-methoxy-4-[2-(8-methoxyquinazolin-4-yl)-3-methyl-4,5-dihydro-3H-pyridazin-6-yl]phenyl]boronic acid], in data set [1], the Emax worked out at 92% and the pIC50 is 5.82.

Regarding `COc1cccc2c(N3N=C(c4ccc5c(c4)COB5O)CCC3C)ncnc12` (stereo not shown) [Ex 56, 4-[6-(1-hydroxy-3H-2,1-benzoxaborol-5-yl)-3-methyl-4,5-dihydro-3H-pyridazin-2-yl]-8-methoxy-quinazoline], in data set [1], the Emax came to 84% and the pIC50 was 6.00.

`COc1cc(C2=NN(C3=NS(=O)(=O)c4ccccc43)CC(C)(C)C2)ccc1B(O)O` [Ex 57, [4-[2-(1,1-dioxo-1,2-benzothiazol-3-yl)-4,4-dimethyl-3,5-dihydro-pyridazin-6-yl]-2-methoxy-phenyl]boronic acid]: in data set [1], the Emax worked out at 84% and the pIC50 was 5.51.

For `COc1cc(C2=NN(C3=NS(=O)(=O)c4ccccc43)CC(C)O2)ccc1B(O)O` (stereo not shown) [Ex 58, [4-[4-(1,1-dioxo-1,2-benzothiazol-3-yl)-6-methyl-5,6-dihydro-1,3,4-oxadiazin-2-yl]-2-methoxy-phenyl]boronic acid], in data set [1], the Emax came to 81% and the negative-log IC50 (pIC50) was 5.49.

For `COc1cc(/C=N/N(C)c2cc(C)cnn2)ccc1B(O)O` [Ex 59, [2-methoxy-4-[(E)-[methyl-(5-methylpyridazin-3-yl)hydrazono]methyl]-phenyl] boronic acid], the Emax in data set [1] was determined as 71%.

On to `COc1cnnc(N(C)/N=C/c2ccc3c(c2)COB3O)c1` [Ex 60, N-[(E)-(1-hydroxy-3H-2,1-benzoxaborol-5-yl)methyleneamino]-5-methoxy-N-methyl-pyridazin-3-amine], for which, in data set [1], the Emax worked out at 79% and the negative-log IC50 (pIC50) is 5.30.

Turning to `COc1cc(/C=N/N(CC(C)C)C2=NS(=O)(=O)c3ccccc32)ccc1B1OC(=O)CN(C)CC(=O)O1` [Ex 61, 2-[4-[(E)-[(1,1-dioxo-1,2-benzothiazol-3-yl)-isobutyl-hydrazono]methyl]-2-methoxy-phenyl]-6-methyl-1,3,6,2-dioxazaborocane-4,8-dione], in data set [1], the Emax came to 87% and the negative-log IC50 (pIC50) is 5.18.
